From patent US7528175B2, “Method of treating airway diseases with beta-adrenergic inverse agonists” (Inverseon, Inc., priority 2005, dated 2009)
Entries after “also recorded” stand apart in the source; their conditions may differ. Like-named read-outs stand apart in the source and are kept apart here.

Legend:
asthmatic mice [1] = experiment: BALF cell number and type (Example 11); assay type: in vivo; details: vs nontreated asthmatic mice
Source text: The same mice as described in Example 1 underwent bronchoalveolar lavage (BAL) to determine the total number and type of immune system cells in the lung. BAL Fluid (BALF) was irrigated and collected from the lungs of mice as previously described (Evans K L, Bond R A, Corry […]. Frequency dependence of respiratory system mechanics during induced constriction in a murine model of asthma. J Appl Physiol. 2003 January;94(1):245-52). […] The number of neutrophils was increased in nontreated asthmatic mice compared to mice that served as controls for chronic beta-blocker treatments. In comparison to their notable effects on airway responsiveness, the β-AR ligands tested had very little effect on BALF cellularity. […] FIG. 12 has 3 panels of cell number and type of cells from the bronchoalveolar lavage fluid of asthmatic mice treated acutely or chronically with beta adrenergic ligands. Cells were identified as eosinophils (black bars), macrophages (hatched bars), neutrophils (grey bars), and lymphocytes (white bars) by standard morphologic criteria. At least 200 cells were counted per cytospin preparation, and the absolute number of each cell type was calculated based on the volume of fluid recovered from the lavage. […] Data are expressed as mean ±SEM and are representative of 6-25 animals per group. #P<0.05 compared to NTX, *P<0.05 compared to control (ANOVA).

asthmatic mice [2] = experiment: Airway resistance (Raw) response to methacholine in murine model of asthma (forced oscillation); assay type: in vivo, Balb/cJ mice
Procedure: Balb/cJ mice aged 6 weeks (Jackson Animal Laboratory, Bar Harbor, Me.) were housed under specific pathogen-free conditions and fed a chicken ovalbumin-free diet. The Animal Research Ethics Boards of both the University of Houston and the Baylor College of Medicine approved all experiments reported here. […] Mice were sensitized with subcutaneous injection of 25 μg of ovalbumin adsorbed to aluminum hydroxide on protocol days 2, 9, and 16. Subsequently, mice were given 50 μL of saline solution containing 25 μg of ovalbumin intranasally, on a daily basis, from protocol days 23 through 27. A group of ovalbumin-sensitized saline-challenged mice serves as controls for systemic sensitization and respiratory challenges with ovalbumin. Prior to intranasal administrations, mice were sedated with halothane vapor.
To examine the effects of duration of β-adrenergic ligand therapy on the phenotype of the murine model of asthma, the experimental drugs were administered either acutely or chronically to different groups of asthmatic mice.
Asthmatic mice on acute therapy were given a single intravenous bolus infusion of either β-adrenergic drug or normal saline on protocol day 28, 15 minutes before airway responsiveness to methacholine was determined. […] […] […] These concentrations were chosen based on those producing therapeutic effects in mice in previously published studies. The non-asthmatic mice were fed normal chow.
On protocol day 28, mice were anesthetized, tracheotomized, and connected to a computer-controlled small animal ventilator (Flexivent, Scientific Respiratory Equipment, Inc., Montreal, Canada). Airway resistance (Raw) was measured using the forced oscillation technique. The cellular composition of bronchoalveolar lavage fluid (BALF) was also determined.
To induce airway constriction, a solution containing 150 μg/mL of acetyl-α-methylcholine chloride (methacholine) (Sigma Chemical, St. Louis, Mo.) was infused intravenously at constant rates using a syringe infusion pump (Raze Scientific Instruments, Stanford, Conn.). […] Each methacholine dose was administered for 3 to 5 minutes, during which data were sampled at 1-minute intervals and then averaged.
The complex input impedance of the respiratory system was computed and the value of the real part of respiratory system impedance at 19.75 Hz was taken to reflect the magnitude of airway resistance (Raw). To examine the degree of airway responsiveness of each animal, the values for Raw as a function of methacholine doses were plotted. The largest value for Raw achieved in response to methacholine stimulation was referred to as Rawpeak. For mice that achieved a plateau in the methacholine dose-Raw response curve, the ED50 was calculated by linear interpolation using the GraphPad Prism4 (GraphPad Software, Inc.). […] The Bonferroni test was used to examine the statistical differences between experimental groups. The effects of acute drug treatments on baseline respiratory system mechanics were assessed using a two-tailed paired t-test. A value of P<0.05 was considered significant.
For these experiments, salbutamol was used for chronic administration at 0.5 mg/kg/day with a minipump and for acute administration at 0.15 mg/kg by i.v. bolus 15 minutes prior to challenge. Alprenolol was used at a high dose of 7200 ppm in chow or at a low dose of 720 ppm in chow. Carvedilol was used at a high dose of 2400 ppm in chow or at a low dose of 720 ppm in chow.

[3] = tested on: tracheas from asthmatic mice; details: chronic treatment of asthmatic mice, excised tracheas; cited from earlier work
asthmatic mice [4] = experiment: Airway hyperresponsiveness, combination of carvedilol and salbutamol vs carvedilol monotherapy; assay type: in vivo, Balb/cJ mice; details: 28 days treatment; highest dose of methacholine
Procedure: Mice (Balb/cJ) aged 6 weeks were housed under specific pathogen-free conditions and fed a chicken ovalbumin-free diet. Mice were systemically sensitized with ovalbumin adsorbed to aluminum hydroxide. Mice were treated as follows: CAR/SAL 28D=for 28 days mice (n=6-12) were administered carvedilol (2400 ppm in animal chow) and salbutamol (subcutaneous delivery of 0.5 mg/kg/day in an Alzet #2400 osmotic minipump); NTX S/C=mice (n=6-12) no drug treatment for 28 days; CTRL=mice (n=6-12) no drug treatment for 28 days, not subsequently challenged; CARHD 28D=for 28 days mice (n=6-12) were administered carvedilol only (2400 ppm in animal chow); CARHD 28D SAL AC=for 28 days mice (n=6-12) were administered carvedilol (2400 ppm in animal chow) and 15 minutes prior to measuring airway hyperresponsiveness, salbutamol was administered at a dose of […].
To measure airway hyperresponsiveness after 28 days, all mice except the CTRL (control) mice were challenged with ovalbumin and then all mice were anesthetized, tracheotomized, and connected to a Flexivent small animal ventilator to measure airway resistance (Raw) by the forced oscillation technique. To induce airway constriction, a solution containing 150 μg/mL of methacholine was infused using a syringe infusion pump. The methacholine infusion was started at 0.008 mL/min and its rate was doubled stepwise up to a maximum […]. […]

β2-adrenergic receptor [5] = biological target: β2-adrenergic receptor (Mus musculus, UniProt P18762); assay type: binding, mice
β2-adrenergic receptor (Mus musculus, UniProt P18762), sequence (P18762 whole entry): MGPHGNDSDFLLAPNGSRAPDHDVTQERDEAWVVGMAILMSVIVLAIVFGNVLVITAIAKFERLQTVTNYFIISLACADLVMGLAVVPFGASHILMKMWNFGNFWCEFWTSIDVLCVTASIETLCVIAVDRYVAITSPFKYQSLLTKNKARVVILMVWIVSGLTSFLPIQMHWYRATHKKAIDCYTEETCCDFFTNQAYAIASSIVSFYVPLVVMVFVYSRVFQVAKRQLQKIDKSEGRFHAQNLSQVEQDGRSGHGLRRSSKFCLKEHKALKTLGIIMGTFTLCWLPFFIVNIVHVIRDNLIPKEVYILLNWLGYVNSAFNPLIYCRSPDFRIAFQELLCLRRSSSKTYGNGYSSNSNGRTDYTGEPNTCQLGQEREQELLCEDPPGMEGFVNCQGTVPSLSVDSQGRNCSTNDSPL
Procedure: (§1) β2-adrenergic receptor numbers were measured in asthmatic mice as follows. […] Mice were sacrificed and lung membranes were isolated as follows. Frozen lung tissue was homogenized in an ice-cold buffer containing 0.32 M sucrose and 25 mM Tris (pH 7.4) using a polytron (Pro 200, Pro Scientific, Inc.). The homogenate was centrifuged at 1000×g for 10 min at 4° C. The resulting supernatant was centrifuged at 40,000×g for 20 min at 4° C. The pellet was suspended in an ice-cold 25 mM Tris-HCl buffer (pH 7.4) and centrifuged at 40,000×g for 20 min at 4° C. The final pellet was suspended in 200 μL of 25 mM Tris-HCl (pH 7.4); membrane protein concentration was determined by BCA protein assay kit. […] The incubation was done at 37° C. for 2 h and terminated by rapid vacuum filtration through glass fiber filters. The filters were washed three times with 250 μL of cold wash buffer (25 mM Tris-HCl, pH 7.4) and the radioactivity determined in a counter. […] Receptor densities are expressed as femtomoles of sites per milligram of protein. Bmax is determined by nonlinear regression of the saturation binding curves.

β2-adrenergic receptor [6] = assay type: binding, mice; details: 2 days of administration
Procedure: as §1

patients with CHF = details: cited from earlier work

COc1ccccc1OCCNCC(O)COc1cccc2[nH]c3ccccc3c12 (stereo not shown) [carvedilol]
BALF cellularity (asthmatic mice [1]; acute treatment (15 minutes)): had no effects on BALF cellularity | BALF cellularity (asthmatic mice [1]; chronic treatment (28 days)): had no effects on BALF cellularity | Decreased Raw (asthmatic mice [2]; 15 minutes of administration): no | Decreased Raw (asthmatic mice [2]; 2 days of administration): no | Decreased Raw (asthmatic mice [2]; 28 days of administration): yes | airway responsiveness to methacholine provocation (Raw) (asthmatic mice [2]; asthmatic mice, acute: single intravenous bolus 15 minutes before methacholine): enhanced the airway responsiveness | sensitivity of the responsiveness to methacholine (asthmatic mice [2]; asthmatic mice, chronic administration): shifts the sensitivity of the responsiveness to methacholine to lower concentrations | airway responsiveness to methacholine provocation (Raw) (asthmatic mice [2]; asthmatic mice, chronic administration for 28 days): does reduce airway hyperresponsiveness; also recorded: reduced the responsiveness of asthmatic mice to methacholine provocation | protection from airway hyperresponsiveness (asthmatic mice [2]; chronic administration, low and high doses in chow (FIGS. 8D-8G)): providing protection from airway hyperresponsiveness | effectiveness on tracheal contraction in response to methacholine (rank) [3]: followed by carvedilol | bronchoconstriction / airway hyperresponsiveness (Raw) (asthmatic mice [4]): higher bronchoconstriction than these treatments but less than the non-drug treated sensitized and challenged (NTX S/C) mice | Bmax (β2-adrenergic receptor [5]; 15 Minutes drug treatment, lung membranes of asthmatic mice, mean±SEM): 86.3 ± 19.42 femtomoles of sites per milligram of protein | βmax (β2-adrenergic receptor [5]; 28 Days drug treatment, lung membranes of asthmatic mice, mean±SEM): 904.1 ± 43.46 femtomoles of sites per milligram of protein | Increased β2AR density (β2-adrenergic receptor [5]; 15 minutes of administration): no | Increased β2AR density (β2-adrenergic receptor [5]; 28 days of administration): showed an increase in receptor density at 28 days | Increased β2AR density (β2-adrenergic receptor [5]; 28 days of administration, listed as Carvedilol): yes | increase of the level of β2-adrenergic receptors over the non-treated mice (β2-adrenergic receptor [5]; chronic administration): over 10 fold | Increased β2AR density (β2-adrenergic receptor [6]): no | clinical outcome in congestive heart failure (patients with CHF): significant mortality reduction
